The values below come from patent US20240358862A1, “Synthesis Method and Application of a Near-infrared Probe GGa-ICG specific binding to PSCA” (Guangzhou Shiyun Biotechnology Co., Ltd, priority 2022, published 2024).

The target in data set [1] is T1, PSCA (Homo sapiens, UniProt O43653).
T1 sequence (O43653 12-83): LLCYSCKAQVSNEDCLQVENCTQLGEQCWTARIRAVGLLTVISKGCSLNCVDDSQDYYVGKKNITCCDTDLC
Kind of data set: Mass spectrometry analysis of the target protein of GGa-ICG. In kind it is binding. Set-up: Membrane proteins of PC-3 cells were extracted; endogenous in cells; host or cells: PC-3. Conditions: PC-3 membrane proteins, 35 kDa band. The protocol: PC-3 cells were washed three times with cold PBS buffer and lysed at 4° C. for 30 minutes in 5 mL of low-salt buffer [50 mM Tris-HCl (pH=7.5) containing protease inhibitor (0.1 mM PMSF complex)]. After centrifugation, the pellets were washed 3 times with 5 mL of low-salt buffer and then solubilized in 1.5 mL of lysis buffer (PBS containing 5 mM MgCl2 and 1% Triton X-100) at 4° C. for 30 minutes. The resulting supernatants were separately incubated with beads, ssDNA-ICG, or GGa-ICG at 4° C. for 1 hour. Protein-ssDNA-ICG or protein-GGa-ICG complexes were then captured by incubating them with 2 mg (200 μL) of streptavidin beads at 4° C. for 45 minutes. After centrifugation, the captured proteins were heated and eluted in 30 μL of loading buffer and then analyzed by SDS-PAGE gel and Coomassie blue staining. The protein bands showing significant differences in aptamer purification among different groups were subjected to in situ digestion and analyzed by LC-MS/MS.
Based on the above results, total membrane proteins were extracted from PC-3 cells and incubated with biotinylated GGa-ICG or ssDNA-ICG separately. Then, the binding complex was separated using streptavidin-coated magnetic beads and analyzed by SDS-PAGE gel. A characteristic protein band with a relative molecular weight of 35 kDa was found in the GGa-ICG column, which was digested and analyzed by LC-MS/MS QSTAR.

For data set [2], the target named is T1, PSCA. Nature of the data set: In vivo blocking of GGa-ICG by PSCA antibodies. Set-up: endogenous in cells; species or system nude mice. As to conditions: 1 mg PSCA antibody pre-injected, GGa-ICG 12 hours later. The protocol: 1 mg of PSCA antibody was pre-injected into nude mice, followed by injection of GGa-ICG 12 hours later, and live imaging was performed to observe the phenomenon of GGa-ICG binding.

The target of data set [3] is T2, PSCA on PC-3 cells (Homo sapiens, UniProt O43653).
T2 construct: Membrane proteins of PC-3 cells were extracted; endogenous in cells; host or cells: PC-3
T2 sequence (O43653 12-83): T1 sequence (O43653 12-83)
Nature of the data set: Antibody competition experiment by flow cytometry. The format is cell-based. Conditions: 200 nM GGa-ICG, 10 μg/mL anti-PSCA-FITC. The protocol:
A suspension of 5×10^5 cells of PC-3 or other cell lines was incubated with 200 nM of GGa-ICG or anti-PSCA-FITC antibody in 100 μL of binding buffer on ice for 30 minutes, washed again, and subjected to flow cytometry analysis (FACS Calibur instrument, BD Biosciences): 10,000 events were collected for each sample. ICG-labeled ssDNA-ICG was used as a negative control. For the antibody competition experiment, 5×10^5 cells were incubated with 200 nM of GGa-ICG in binding buffer on ice for 30 minutes, followed by the addition of 10 μg/mL of anti-PSCA-FITC antibody and further incubation for 30 minutes as the GGa-ICG blocking group. 10 μg/mL of anti-PSCA-FITC was incubated in binding buffer on ice for […], followed by the addition of 200 nM of GGa-ICG and further incubation for 30 minutes as the anti-PSCA-FITC blocking group. Both 200 nM of GGa-ICG and 10 μg/mL of anti-PSCA-FITC antibody were incubated on ice for 30 minutes as the combined group. After washing, the cells were resuspended and subjected to flow cytometry analysis.
To confirm the results of the mass spectrometry, the location of GGa-ICG and PSCA on PC-3 cells was first examined. To achieve this, PC-3 cells were incubated with […].
On the technique in general: Flow cytometry measures light scatter and fluorescence of single cells or particles in a stream.

Data set [4] in a line: Fluorescence depth detection (tissue penetration depth). The format is physicochemical. Conditions: excited at 780 nm, signals detected after 5 minutes. As for the experimental part:
The tissue penetration depth of ICG, GGa-ICG, and ssDNA-ICG was detected using a fluorescence spectrometer at depths of 1, 2, 3, 4, and 5 mm. Fluorescence was excited at a wavelength of 780 nm and fluorescence signals were detected after 5 minutes to compare signal-to-noise ratios and observe the fluorescence signal penetration depth.

Regarding “GGa-ICG: near-infrared probe: PSCA-binding nucleic acid aptamer GGa linked at 3′ to an ICG derivative dye (DNA TGCCACTACAGCTGGTTCGGTTTGGTGACTTCGTTCTTCGTTGTGGT; 3'-ICG dye, further chemistry not given here)”, the “target protein hit list by LC-MS/MS” value in data set [1] is “PSCA ranking first”. The “blocking of tumor visualization by PSCA antibody” value in data set [2] was “Completely Blocked”. Besides, the “relationship with PSCA antibody in flow cytometry” value in data set [3] is “competitive relationship”. Also, the penetration depth in data set [4] is recorded as ~6 mm.
